Measurements as given in patent publication US6433022B1, “Spermicide” (Medical Research Council, priority 1997, dated 2002).

Key:
Format in all cases: cell-based
[1] = system: human spermatozoa; test: Effect of inhibitors on NADPH-induced ROS generation, lucigenin-dependent chemiluminescence; conditions: for Lucigenin dependent chemiluminescence: Treated, NADPH-induced, means ± SE; for effect of mitochondrial electron transport chain inhibitors on response to NADPH: intact spermatozoa; for inhibition of the response to NAD(P)H: triton permeabilized cells; for effect on NADPH-dependent reactive oxygen species generation: dicoumarol 100 μM, sodium oxamate 1 mM, allopurinol 10 mM
Excerpt: ROS generation was monitored by luminometry employing the chemiluminescence probes lucigenin and luminol. Lucigenin is sensitive to the presence of superoxide anion and was used to monitor the free radical responses to NAD(P)H. Luminol, when used in conjunction with horseradish peroxidase (HRP; Sigma Type Vl, 288 U/mg), detects mainly hydrogen peroxide (Aitken et al., 1992) and was used to monitor the responses of spermatozoa to PMA (phorbol 12-myristate, 13-acetate), an activator of protein kinase C. […] Photon emission was monitored at 37° C. using the Bermold 9505B luminometer (Berthold, Wilbad, Germany) featuring 6 electronically compensated, peltier cooled, photomultipliers and the results expressed as counts/minute. For both of the probes used, 400 μl of spermatozoa, at a concentration of 10×10^6/ml, were placed in a 3 ml plastic, flat-bottomed plastic tube. For luminol-based reactions, the spermatozoa were suspended in BWW supplemented with Albuminar, but when lucigenin was used the Albuminar was replaced with 1 mg/ml polyvinyl alcohol. A 4 μl aliquot of a 25 mM stock solution of either luminol or lucigenin m-dimethyl sulphoxide (DMSO), was then added to the cell suspension, resulting in a final probe concentration of 250 μM. For the measurement of hydrogen peroxide generation by intact cells, luminol-dependent chemiluminescence was enhanced by addition of 8 μl of HRP, freshly prepared at a concentration of 2 mg/ml in PBS, to give a final HRP concentration of 11.52 U/ml. The luminometer results were recorded as continuous traces and as integrated photon counts over a fixed period of time (5 min).
(§1) In all experiments, DPI was added to the spermatozoa before the addition of NADPH or PMA while control incubations were supplemented with DMSO alone. ROS generation was recorded for approximately 10 min to establish a steady state signal and then 45 μl of NADPH (final concentration 500 μM) or 4 μl of PMA (final concentration 100 nM) were added and the responses monitored for around 20 min using lucigenin and luminol-peroxidase based chemiluminescence respectively.
Quinacrine was purchased from Sigma and dissolved in 10% DMSO to give a stock solution of 10 mM. […] The impact of quinacrine on NADPH- and PMA-induced ROS generation was monitored as described above for DPI.

[2] = system: human spermatozoa; test: Effect of inhibitors on PMA-induced hydrogen peroxide production, luminol-peroxidase chemiluminescence; conditions: 100 nM PMA
Excerpt: ROS generation was monitored by luminometry employing the chemiluminescence probes lucigenin and luminol. Lucigenin is sensitive to the presence of superoxide anion and was used to monitor the free radical responses to NAD(P)H. Luminol, when used in conjunction with horseradish peroxidase (HRP; Sigma Type Vl, 288 U/mg), detects mainly hydrogen peroxide (Aitken et al., 1992) and was used to monitor the responses of spermatozoa to PMA (phorbol 12-myristate, 13-acetate), an activator of protein kinase C. […] Photon emission was monitored at 37° C. using the Bermold 9505B luminometer (Berthold, Wilbad, Germany) featuring 6 electronically compensated, peltier cooled, photomultipliers and the results expressed as counts/minute. […] The luminometer results were recorded as continuous traces and as integrated photon counts over a fixed period of time (5 min).
as §1, with “respectively. […]” for “respectively.”

[3] = system: human spermatozoa; test: Nicotinamide dinucleotide-induced superoxide generation, lucigenin-dependent chemiluminescence; conditions: 500 μM nucleotide
Excerpt: ROS generation was monitored by luminometry employing the chemiluminescence probes lucigenin and luminol. Lucigenin is sensitive to the presence of superoxide anion and was used to monitor the free radical responses to NAD(P)H. Luminol, when used in conjunction with horseradish peroxidase (HRP; Sigma Type Vl, 288 U/mg), detects mainly hydrogen peroxide (Aitken et al., 1992) and was used to monitor the responses of spermatozoa to PMA (phorbol 12-myristate, 13-acetate), an activator of protein kinase C. NAD(P)H could not be used with the luminol-peroxidase system because of the generation of high background signals, presumably due to the oxidase reactions of HRP. Photon emission was monitored at 37° C. using the Bermold 9505B luminometer (Berthold, Wilbad, Germany) featuring 6 electronically compensated, peltier cooled, photomultipliers and the results expressed as counts/minute. For both of the probes used, 400 μl of spermatozoa, at a concentration of 10×10^6/ml, were placed in a 3 ml plastic, flat-bottomed plastic tube. For luminol-based reactions, the spermatozoa were suspended in BWW supplemented with Albuminar, but when lucigenin was used the Albuminar was replaced with 1 mg/ml polyvinyl alcohol. A 4 μl aliquot of a 25 mM stock solution of either luminol or lucigenin m-dimethyl sulphoxide (DMSO), was then added to the cell suspension, resulting in a final probe concentration of 250 μM. For the measurement of hydrogen peroxide generation by intact cells, luminol-dependent chemiluminescence was enhanced by addition of 8 μl of HRP, freshly prepared at a concentration of 2 mg/ml in PBS, to give a final HRP concentration of 11.52 U/ml. The luminometer results were recorded as continuous traces and as integrated photon counts over a fixed period of time (5 min).
The ability of human spermatozoa to generate superoxide anion in response to NADPH was monitored by lucigenin-dependent chemiluminescence and compared with its non-phosphorylated and non-reduced counterparts, i.e. NADH, NADP^+ and NAD^+. In addition, the stimulatory properties of an isomer of NADPH, usually non-active in reductive biosynthesis, were examined. All pyridine nucleotides were made up to the required concentration in PBS immediately prior to use. Stock solutions of the nucleotides were made up at concentrations 10 fold higher than the required final working concentration, to allow for a 10 fold dilution on addition to the suspensions of spermatozoa.

[4] = system: human sperm; test: Effect of quinones on sperm motility; conditions: for mean motility score: 50 μM quinone, human sperm
Protocol: Following the preparation of spermatozoa by standard Percoll gradient they were resuspended in homologous seminal plasma to a concentration of 20 million per ml, immediately prior to the beginning of the experiment. 50 μl of the sperm suspension was placed in an eppendorf tube, and the quinone was either added alone or in combination with other reagents, for example, KI, HRP (Horseradish Peroxidase), BHT (butylated hydroxytoluene) etc. depending on the experiment. The volume was made up to 100 μl with BWW/PVA.
The quinone was always the final reagent to be added. […] The sample was gently agitated and 10 μl was placed on a slide and a motility was scored. The aim was to score a motility approximately 20 seconds following the addition of the quinone. There were two controls set up, one motility count taken at the beginning of the experiment (initial control) and one motility count taken at the end of the experiment (final control). The controls consisted of 50 μl of the sperm suspension followed by the addition of 50 μl BWW/PVA. The reason for having two controls was to observe if any changes in sperm motility had occurred simply as a factor of time, i.e. from residing in seminal plasma for a long duration. At all times during the experiment, the spermatozoa were incubated in a hot box at 24° C. All motility experiments were carried out on sperm suspended in seminal plasma unless otherwise stated.

Compound: C=C(C)[C@H]1Cc2c(ccc3c2O[C@@H]2COc4cc(OC)c(OC)cc4[C@@H]2C3=O)O1 [Rotenone, rotenone]
- Lucigenin dependent chemiluminescence ([1]; inhibitor 10 μM): 9.07 ± 2.26 counts/5 min × 104
- effect of mitochondrial electron transport chain inhibitors on response to NADPH [1]: none of which were effective
- inhibition of the response to NAD(P)H [1]: no inhibition

Compound: c1ccc2c(c1)[I+]c1ccccc1-2 [DPI, Diphenylene Iodonium]
- inhibition of PMA-stimulated hydrogen peroxide production ([2]; dose range 0.01-100 μM): competent to inhibit
- suppression of NADPH-induced free radical generation ([1]; 500 μM NADPH, statistically significant at the 1 μM level (P<0.001)): dose-dependent capacity to suppress

Compound: N#CC(C#N)=NNc1cccc(Cl)c1 [CCP, carbonyl cyanide m-chlorophenylhydrazone]
- Lucigenin dependent chemiluminescence ([1]; inhibitor 10 μM): 12.61 ± 6.97 counts/5 min × 104
- effect of mitochondrial electron transport chain inhibitors on response to NADPH [1]: none of which were effective

Compound: NC(=O)c1ccc[n+]([C@@H]2O[C@H](COP(=O)([O-])OP(=O)(O)OC[C@H]3O[C@@H](n4cnc5c(N)ncnc54)[C@H](OP(=O)(O)O)[C@@H]3O)[C@@H](O)[C@H]2O)c1 [NADP^+]
- lucigenin-dependent chemiluminescent response (superoxide anion generation) [3]: almost completely without effect

Compound: NC(=O)C1=CN([C@@H]2O[C@H](COP(=O)(O)OP(=O)(O)OC[C@H]3O[C@@H](n4cnc5c(N)ncnc54)[C@H](O)[C@@H]3O)[C@@H](O)[C@H]2O)C=CC1 [NADH]
- lucigenin-dependent chemiluminescent response (superoxide anion generation) [3]: approximately one third of that induced by β-NADPH

Compound: O=c1oc2ccccc2c(O)c1Cc1c(O)c2ccccc2oc1=O [Dicoumarol, dicoumarol]
- Lucigenin dependent chemiluminescence ([1]; inhibitor 100 μM): 5.20 ± 2.10 counts/5 min × 104
- effect on NADPH-dependent reactive oxygen species generation [1]: ineffective

Compound: CCN(CC)CCCC(C)Nc1c2ccc(Cl)cc2nc2ccc(OC)cc12 (stereo not shown) [quinacrine]
- suppression of responses to PMA ([2]; doses of 75-100 M): complete loss of activity
- suppression of NADPH-induced ROS production ([1]; 500 μM NADPH, concentrations as high as 50 μM, no dose/response relationship): 30-40%

Compound: NC(=O)c1ccc[n+]([C@@H]2O[C@H](COP(=O)([O-])OP(=O)(O)OC[C@H]3O[C@@H](n4cnc5c(N)ncnc54)[C@H](O)[C@@H]3O)[C@@H](O)[C@H]2O)c1 [NAD^+]
- lucigenin-dependent chemiluminescent response (superoxide anion generation) [3]: almost completely without effect

Compound: CC1=CC(=O)c2c(O)cccc2C1=O [plumbagin]
- mean motility score [4]: 54%

Compound: CC[C@H]1/C=C/C=C/C[C@@H](C)[C@H](O)[C@@](C)(O)C(=O)[C@@H](C)[C@H](O)[C@@H](C)C(=O)[C@@H](C)[C@H](O)[C@@H](C)/C=C/C(=O)O[C@@H]2[C@H](C)[C@H](CC1)O[C@]1(CC[C@H](C)[C@H](C[C@@H](C)O)O1)[C@H]2C [oligomycin]
- inhibition of the response to NAD(P)H [1]: no inhibition

Compound: O=C1C=CC(=O)c2c(O)cccc21 [juglone]
- mean motility score [4]: 5%
- IC50 ([4]; human sperm in seminal plasma, motility scored approximately 20 seconds after addition, read-out: ID50, dose-dependent inhibition of sperm motility): ~10 µM

Compound: NC(=O)C1=CN([C@H]2O[C@H](COP(=O)(O)OP(=O)(O)OC[C@H]3O[C@@H](n4cnc5c(N)ncnc54)[C@H](OP(=O)(O)O)[C@@H]3O)[C@@H](O)[C@H]2O)C=CC1 [α NADPH]
- lucigenin-dependent chemiluminescent response (superoxide anion generation) [3]: lack of response

Compound: Oc1ncnc2[nH]ncc12 [Allopurinol, allopurinol]
- Lucigenin dependent chemiluminescence ([1]; inhibitor 10 mM): 7.19 ± 1.66 counts/5 min × 104
- effect on NADPH-dependent reactive oxygen species generation [1]: ineffective

Compound: antimycin A
- Lucigenin dependent chemiluminescence ([1]; inhibitor 50 μM): 10.53 ± 2.49 counts/5 min × 104
- effect of mitochondrial electron transport chain inhibitors on response to NADPH [1]: none of which were effective
- inhibition of the response to NAD(P)H [1]: no inhibition

Compound: [N-]=[N+]=[N-] [Sodium azide, sodium azide]
- Lucigenin dependent chemiluminescence ([1]; inhibitor 10 μM): 7.69 ± 1.54 counts/5 min × 104

Compound: O=C1C=C(O)C(=O)c2ccccc21 [lawsone]
- mean motility score [4]: 51%

Compound: NC(=O)C(=O)[O-].[Na+] [Sodium Oxamate, sodium oxamate]
- Lucigenin dependent chemiluminescence ([1]; inhibitor 1 mM): 5.20 ± 2.10 counts/5 min × 104
- effect on NADPH-dependent reactive oxygen species generation [1]: ineffective
